The results in this text go back to patent US8940343B2, “Personal care composition” (Conopco Inc., priority 2010, dated 2015).

Data set [1] is described as follows: HPTLC photostability of Parsol 1789 spotted with potential quencher molecules (methanol stock solutions), UVR exposure, densitometry. To be noted: Parsol 1789 remaining on HPTLC plate after UVR 5.5 mW/cm^2 for 120 minutes; ratios by weight. Type of data set: physicochemical. As to the method: The method was based on spotting the HPTLC plates (in duplicate) with the sunscreen molecules of interest along with potential quencher molecules or formulations. The plate is then exposed to UVR (intensity 5.5 mW/cm^2) for 120 minutes. Following this the chromatographic separation was carried out using appropriate solvent system. Densitometry analysis is done to determine the amount of sunscreen degraded.
Stock solutions were prepared in methanol following the ratios as mentioned in the following table. 14 μL of stock solutions were loaded (3 mm width; 16 mm separation) on a 10×10 cm F254 HPTLC plate, using CAMAG LINOMAT 5 applicator equipped with a 100 μL micro-syringe (Hamilton, Switzerland). Ascending chromatography was performed at a distance of 85 mm in a TLC chamber using n-hexane-ethyl acetate 9:1 (v/v) as the mobile phase (˜10 mL). The plates were dried at room temperature and subjected to ultraviolet absorption densitometry scan. The concentration dependent fluorescent bands due to presence of sunscreens were detected with a linear scan at 310 or 357 nm, using Camag TLC Scanner 3, in the presence of deuterium source. […] 4-t-buty-4′-methoxdibenzoylmethane concentrations present on each lane were determined from densitogram peak areas; prior and after the sun exposure using Win CATS Planar chromatography manager software.

The conditions of data set [2]: known phenolic antioxidants compared with theaflavin.

For the compound `COc1ccc(C(=O)CC(=O)c2ccc(C(C)(C)C)cc2)cc1` [Example 1a, 4-t-butyl-4′-methoxydibenzoylmethane], the “Mean Percent stability” value in data set [1] worked out at 61.9%.

Consider `COC(=O)c1cc(O)c(O)c(O)c1` [methyl gallate], for which the “stabilizing property for sunscreens” value in data set [2] is “did not provide the stabilizing property”.
